Measured values taken from PubChem BioAssay (NCI).
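Grown in 96-well plates, cells were treated for 48 hours with each compound at five concentrations. Insufficient inhibition: endpoint recorded as highest concentration tested. Abbreviation: GI50, concentration required for 50% inhibition of growth. TGI: concentration producing complete growth inhibition.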

What was measured:
Assay in all cases: NCI tumour cell line growth inhibition, 48 h; in the data active = GI50 below about 0.43 µM; inactive = the rest
786-0 renal = tested on: 786-0 renal
A498 renal = tested on: A498 renal
A549 NSCLC = tested on: A549 NSCLC
ACHN renal = tested on: ACHN renal
BT-549 breast = tested on: BT-549 breast
CAKI-1 renal = tested on: CAKI-1 renal
CCRF-CEM leukemia = tested on: CCRF-CEM leukemia
COLO 205 colon = tested on: COLO 205 colon
DU-145 prostate = tested on: DU-145 prostate
EKVX NSCLC = tested on: EKVX NSCLC
HCC-2998 colon = tested on: HCC-2998 colon
HCT-116 colon = tested on: HCT-116 colon
HCT-15 colon = tested on: HCT-15 colon
HL-60(TB) leukemia = tested on: HL-60(TB) leukemia
HOP-62 NSCLC = tested on: HOP-62 NSCLC
HOP-92 NSCLC = tested on: HOP-92 NSCLC
HS 578T breast = tested on: HS 578T breast
HT29 colon = tested on: HT29 colon
IGROV1 ovarian = tested on: IGROV1 ovarian
K-562 leukemia = tested on: K-562 leukemia
KM12 colon = tested on: KM12 colon
LOX IMVI melanoma = tested on: LOX IMVI melanoma
M14 melanoma = tested on: M14 melanoma
MALME-3M melanoma = tested on: MALME-3M melanoma
MCF7 breast = tested on: MCF7 breast
MDA-MB-231 breast = tested on: MDA-MB-231 breast
MDA-MB-435 = tested on: MDA-MB-435
MOLT-4 leukemia = tested on: MOLT-4 leukemia
NCI-H226 lung = tested on: NCI-H226 lung
NCI-H23 lung = tested on: NCI-H23 lung
NCI-H460 lung = tested on: NCI-H460 lung
NCI-H522 lung = tested on: NCI-H522 lung
NCI/ADR-RES ovarian = tested on: NCI/ADR-RES ovarian
OVCAR-4 ovarian = tested on: OVCAR-4 ovarian
OVCAR-5 ovarian = tested on: OVCAR-5 ovarian
OVCAR-8 ovarian = tested on: OVCAR-8 ovarian
PC-3 prostate = tested on: PC-3 prostate
RPMI-8226 leukemia = tested on: RPMI-8226 leukemia
RXF 393 renal = tested on: RXF 393 renal
SF-268 CNS = tested on: SF-268 CNS
SF-295 CNS = tested on: SF-295 CNS
SF-539 CNS = tested on: SF-539 CNS
SK-MEL-2 melanoma = tested on: SK-MEL-2 melanoma
SK-MEL-28 melanoma = tested on: SK-MEL-28 melanoma
SK-MEL-5 melanoma = tested on: SK-MEL-5 melanoma
SK-OV-3 ovarian = tested on: SK-OV-3 ovarian
SN12C renal = tested on: SN12C renal
SNB-19 CNS = tested on: SNB-19 CNS
SNB-75 CNS = tested on: SNB-75 CNS
SR leukemia = tested on: SR leukemia
SW-620 colon = tested on: SW-620 colon
T-47D breast = tested on: T-47D breast
TK-10 renal = tested on: TK-10 renal
U251 CNS = tested on: U251 CNS
UACC-257 melanoma = tested on: UACC-257 melanoma
UACC-62 melanoma = tested on: UACC-62 melanoma
UO-31 renal = tested on: UO-31 renal

Oc1ccc(CSc2nnc(-c3ccc(Cl)cc3)n2-c2ccccc2)c2cccnc12
> 72100 nM: TGI (SK-MEL-2 melanoma)
active: GI50 (HCT-116 colon) 375 nM | GI50 (HCT-15 colon) 162 nM | GI50 (HOP-92 NSCLC) 351 nM | GI50 (HS 578T breast) 364 nM | GI50 (K-562 leukemia) 357 nM | GI50 (LOX IMVI melanoma) 425 nM | GI50 (MCF7 breast) 410 nM | GI50 (NCI-H460 lung) 368 nM | GI50 (NCI/ADR-RES ovarian) 211 nM | GI50 (SR leukemia) 264 nM | GI50 (U251 CNS) 327 nM | GI50 (UO-31 renal) 273 nM
> 23600 nM: TGI (HS 578T breast)
> 22100 nM: TGI (U251 CNS)
6340 nM: TGI (HOP-92 NSCLC)
> 100000 nM: TGI (786-0 renal) | TGI (A498 renal) | TGI (A549 NSCLC) | TGI (ACHN renal) | TGI (BT-549 breast) | TGI (CAKI-1 renal) | TGI (CCRF-CEM leukemia) | TGI (COLO 205 colon) | TGI (DU-145 prostate) | TGI (EKVX NSCLC) | TGI (HCC-2998 colon) | TGI (HCT-116 colon) | TGI (HCT-15 colon) | TGI (HL-60(TB) leukemia) | TGI (HOP-62 NSCLC) | TGI (HT29 colon) | TGI (IGROV1 ovarian) | TGI (K-562 leukemia) | TGI (KM12 colon) | TGI (LOX IMVI melanoma) | TGI (M14 melanoma) | TGI (MALME-3M melanoma) | TGI (MCF7 breast) | TGI (MDA-MB-231 breast) | TGI (MDA-MB-435) | TGI (MOLT-4 leukemia) | TGI (NCI-H226 lung) | TGI (NCI-H23 lung) | TGI (NCI-H460 lung) | TGI (NCI-H522 lung) | TGI (NCI/ADR-RES ovarian) | TGI (OVCAR-4 ovarian) | TGI (OVCAR-5 ovarian) | TGI (OVCAR-8 ovarian) | TGI (PC-3 prostate) | TGI (RPMI-8226 leukemia) | TGI (RXF 393 renal) | TGI (SF-268 CNS) | TGI (SF-295 CNS) | TGI (SF-539 CNS) | TGI (SK-MEL-28 melanoma) | TGI (SK-MEL-5 melanoma) | TGI (SK-OV-3 ovarian) | TGI (SN12C renal) | TGI (SNB-19 CNS) | TGI (SNB-75 CNS) | TGI (SR leukemia) | TGI (SW-620 colon) | TGI (T-47D breast) | TGI (TK-10 renal) | TGI (UACC-257 melanoma) | TGI (UACC-62 melanoma) | TGI (UO-31 renal)
inactive: GI50 (786-0 renal) 1170 nM | GI50 (A498 renal) 3890 nM | GI50 (A549 NSCLC) 2070 nM | GI50 (ACHN renal) 532 nM | GI50 (BT-549 breast) 731 nM | GI50 (CAKI-1 renal) 1270 nM | GI50 (CCRF-CEM leukemia) 488 nM | GI50 (COLO 205 colon) > 100000 nM | GI50 (DU-145 prostate) 762 nM | GI50 (EKVX NSCLC) 1380 nM | GI50 (HCC-2998 colon) 733 nM | GI50 (HL-60(TB) leukemia) 584 nM | GI50 (HOP-62 NSCLC) 544 nM | GI50 (HT29 colon) > 100000 nM | GI50 (IGROV1 ovarian) 954 nM | GI50 (KM12 colon) 877 nM | GI50 (M14 melanoma) 510 nM | GI50 (MALME-3M melanoma) 2390 nM | GI50 (MDA-MB-231 breast) 5840 nM | GI50 (MDA-MB-435) 517 nM | GI50 (MOLT-4 leukemia) 592 nM | GI50 (NCI-H226 lung) 4980 nM | GI50 (NCI-H23 lung) 697 nM | GI50 (NCI-H522 lung) 1910 nM | GI50 (OVCAR-4 ovarian) 2070 nM | GI50 (OVCAR-5 ovarian) 5730 nM | GI50 (OVCAR-8 ovarian) 516 nM | GI50 (PC-3 prostate) 636 nM | GI50 (RPMI-8226 leukemia) 456 nM | GI50 (RXF 393 renal) 1790 nM | GI50 (SF-268 CNS) 633 nM | GI50 (SF-295 CNS) 732 nM | GI50 (SF-539 CNS) 444 nM | GI50 (SK-MEL-2 melanoma) 1340 nM | GI50 (SK-MEL-28 melanoma) 1150 nM | GI50 (SK-MEL-5 melanoma) 2220 nM | GI50 (SK-OV-3 ovarian) 2340 nM | GI50 (SN12C renal) 908 nM | GI50 (SNB-19 CNS) 434 nM | GI50 (SNB-75 CNS) 802 nM | GI50 (SW-620 colon) 436 nM | GI50 (T-47D breast) 1920 nM | GI50 (TK-10 renal) 756 nM | GI50 (UACC-257 melanoma) 2980 nM | GI50 (UACC-62 melanoma) 1490 nM
